# Source: patent US11261435B2, “Chemical-inducible genome engineering technology” (AGENCY FOR SCIENCE, TECHNOLOGY AND RESEARCH, priority 2015, dated 2022)
# Experiments:
# [1] = test system: EMX1 locus; experiment: Surveyor cleavage assay at the EMX1 locus in HEK293 cells; assay type: cell-based, human; conditions: for switching ratio: harvested 96 hours after transfection
# Method: FIG. 29|Effect of enzyme dosage on the level of background activity, shown as gel images. Different amounts of an iCas-bearing plasmid were transfected together with an EMX1-targeting sgRNA into HEK293 cells. These cells were harvested 96 hours after transfection for the Surveyor cleavage assay. DNA modification was clearly observed when 1 μg of plasmid was utilised, even in the absence of the inducer. […] The switching ratio was improved from 2.83 to 4.16 and 7.96 respectively. […] Arrows indicate the height of the expected cleavage bands.
# [2] = test system: EMX1 locus; experiment: Illumina deep sequencing of INDELs at the EMX1 locus in HEK293 cells; assay type: cell-based, human; conditions: for time at which leaky activity was first detected: without 4-hydroxytamoxifen (0 nM)
# [3] = test system: FANCF locus; experiment: Surveyor assay, genome modification at the FANCF locus in HEK293 cells; assay type: cell-based, human; conditions: for cleavage bands with 4HT: 100 nM or 1000 nM 4HT for 24 hours
# Method: FIG. 16|Genome modification at the FANCF locus in HEK293 cells, the data represented as images showing the results and the concentration of gene induction. 24 hours after transfection with Cas9 variant 27, 29, or 30, the cells were either harvested immediately (0 hour time point) or were exposed to 0 nM, 100 nM or 1000 nM 4HT for another 24 hours before genomic DNA was isolated and analysed by the Surveyor assay. Arrows indicate the expected cleavage bands. […] Furthermore, the leakiness in editing activity became more pronounced over time, as indicated by the increase in INDEL frequency from 2.5% to 7.7% for variant 27 and from 2.9% to 3.5% for variant 29.
# At 24 hours after transfection with a FANCF-targeting plasmid, cells were treated with or without tamoxifen for another 24 hours before genomic DNA was isolated and analysed by the Surveyor assay (FIG. 10).
# [4] = test system: VEGFA promoter, WAS, TAT, and FANCF genes; experiment: Surveyor assay at VEGFA, WAS, TAT and FANCF genomic loci in HEK293 cells; assay type: cell-based, human; conditions: 1 μM 4-HT
# Source text: (§1) The editing activity continued to increase with longer treatment durations.
# [5] = test system: TAT locus; experiment: Surveyor assay at the TAT locus in cancer cell lines; assay type: cell-based, human; conditions: 1 μM 4HT; MCF7, DLD1 and HCT116
# Method: FIG. 18|Genome modification at the TAT locus in different cancer cell lines. The efficiency of iCas was tested in the breast cancer cell line MCF7, as well as in the colorectal cancer cell lines DLD1 and HCT116, the results of which are shown as gel images. Based on the Surveyor assays, genome modifications were detected after the cells were treated with 1 μM 4HT for 6 hours. The INDEL frequency increased when the treatment duration was lengthened to 8 hours for all the cell lines tested. Arrows indicate the expected cleavage bands.
# as §1
# [6] = test system: known Cas9 off-target sites of the EMX1, VEGFA, FANCF, WAS, and TAT sgRNAs; experiment: Surveyor assay at known Cas9 off-target sites; assay type: cell-based, human
# Method: The specificity of iCas was tested using seven distinct guide RNAs (gRNAs), the results of which are shown in three-dimensional column graphs. […] (n≥2 replicates for each on-target site; n≥3 replicates for each EMX1 off-target site; n≥1 replicate for other off-target sites.)
# To assess the DNA cleavage specificity of iCas, the modification of known Cas9 off-target sites of the EMX1, VEGFA, FANCF, WAS, and TAT sgRNAs was measured.
# [7] = test system: CTNNB1 locus; experiment: Surveyor assay at the CTNNB1 locus in STF3A-Tet-On cells; assay type: cell-based
# [8] = test system: Wnt signalling pathway; experiment: Wnt-responsive luciferase reporter assay in STF3A-TetOn cells; assay type: cell-based; conditions: CTNNB1-targeting sgRNA; chemical 6 hours, harvested after another 72 hours
# Method: Cells were treated for 6 hours with the respective chemical and then harvested after another 72 hours to allow sufficient time for changes in β-catenin or luciferase protein levels.
# The cells were then trypsinised and re-seeded equally into a Corning 96-well flat clear bottom white plate. Samples were assayed for luciferase activity using Dual-Glo Luciferase (Promega) according to manufacturer's instructions. All measurements were taken using the i-control software for Tecan microplate readers. All firefly luciferase measurements were normalized to the corresponding renilla luciferase readings.
# [9] = test system: β-catenin; experiment: β-catenin transcript (qRT-PCR) and protein (Western blot) levels; assay type: cell-based, human; conditions: inducer 6 hours, harvested after another 72 hours
# Method: Subsequently, they were harvested for analysis after another 72 hours. […] Error bars reflect the standard deviation from at least three biological replicates.
# Proteins from whole cell lysates, nuclear fractions, and cytosolic fractions were loaded in equal amounts for SDS PAGE and then transferred onto a nitrocellulose membrane for western blot. The primary antibodies used were α-V5 (Life Technologies, 1:8000 dilution), α-3PGDH (Santa Cruz, 1:1000 dilution), and α-total histone H3 (Abcam, 1:10000 dilution). Primary antibodies were diluted in TBST+5% milk and incubated overnight at 4° C. Secondary antibodies were used at a 1:2500 dilution in TBST+5% milk. Membranes were exposed after addition of WesternBright Sirius HRP substrate (Advansta).
# [10] = test system: HEK293 cells; experiment: Immunohistochemical staining, nuclear localization of (ERT2)2-Cas9-(ERT2)2; assay type: cell-based, human; conditions: no 4-HT; 24 hours after transfection
# Method: To verify the results from the Surveyor assays and deep sequencing experiments, immunohistochemical staining was performed to determine the subcellular localization of the three variants, all of which contained two copies of ERT2 at both termini of the enzyme ((ERT2)2-Cas9-(ERT2)2), with or without 1 μM 4-HT. 24 hours after transfection with plasmids carrying a Cas9 variant and a sgRNA targeting the EMX1, VEGFA, FANCF, WAS, or TAT genomic locus, the cells were either fixed immediately and stained with anti-V5 or were subjected to 6 h or 24 h 4-HT treatment before fixation and staining (FIG. 15). […] Most of the protein translocation occurred within the first 6 hours of 4-hydroxytamoxifen treatment.
# Paraformaldehyde-fixed HEK293 cells were first incubated with blocking solution (10% FBS in 0.1M PBS) (JR Scientific Inc) for 30 minutes and then quenched with 3% hydrogen peroxide. Next, the samples were incubated for 2 hours at room temperature or 4° C. overnight with primary antibody specific against the V5 epitope tag (Life Technologies) in blocking solution. Negative controls were incubated with blocking solution without any primary antibody. Subsequently, the samples were thoroughly washed with PBS and then incubated for 1 hour at room temperature with secondary horseradish peroxidase (HRP)-conjugated antibody (GE Healthcare UK Ltd). […]
# [11] = test system: HEK293-iCas cells; experiment: Immunofluorescence localization of iCas in the stable line; assay type: cell-based, human
# Method: FIG. 6|Toggling the activity of iCas on and off (a,b) Immunofluorescence images (a) and quantification (b) of iCas in HEK293-iCas cells either untreated (N.A.) or treated with 4-HT and then fixed at 0, 48, or 72 h after removal of 4-HT from the culture medium. DAPI, nuclear staining; V5, antibody specific for V5-tagged Cas9. Scale bar, […]. In (b), at least 300 cells were counted for each sample and time point. Data represent mean±s.d. from three biological replicates. n.s., not significant (P>0.25); **P<0.001, Student's t-test. (c) Surveyor assay detection of genome modification in HEK293 cells after two cycles of transfection and 4-HT treatment (4-HT 1 and 4-HT 2). A sgRNA targeting the WAS locus was transfected first, and a sgRNA targeting the ASXL2 locus second. Arrows indicate the expected cleavage bands.
# In principle, a conditional system such as iCas should allow users to generate stable cell lines and induce its activity whenever needed. […] The cell line was verified to be functional (FIG. 25a) and monitored the intracellular localization of iCas by immunofluorescence (FIG. 6a). Without 4-hydroxytamoxifen, most cells produced an iCas protein that was localized in the cytoplasm; only 15% of the cells contained nuclear-localized protein. […] The inducer was then washed away and the cells immunostained with anti-V5 antibody at 48 and 72 hours after removal of 4-hydroxytamoxifen.
# [12] = test system: EMX1, TAT, and WAS genomic loci; experiment: Benchmarking of post-translational control systems by Surveyor assay and deep sequencing; assay type: cell-based, human
# Source text: Arrows indicate the expected cleavage bands.
# [13] = test system: EMX1 and ADAR1 genomic loci; experiment: Multiplex genome editing, Surveyor assay; assay type: cell-based, human
# Method: Besides single gene targeting, the ability of iCas to perform multiplex genome engineering was compared with that of intein-Cas9 or split-Cas9. HEK293 cells were co-transfected with a sgRNA targeting EMX1 and another sgRNA targeting a coding exon of ADAR1 (ADAR), and subsequently the extent of genome modification was analysed by the Surveyor assay.
# [14] = test system: PARP4 gene; experiment: Surveyor assay at PARP4 in the HEK293-iCas stable line; assay type: cell-based, human; conditions: 1 μM 4HT for 24 hours; after at least two weeks of passaging
# Method: FIG. 27|Temporal switching of iCas activity. […] To assess the functionality of this cell line, a lentivirus expressing a sgRNA targeting one of the coding exons of the PARP4 gene was generated, and HEK293-iCas cells were infected the virus. After puromycin selection and continuous passaging of the cells for at least two weeks, the cells were treated with or without 1 μM 4HT for 24 hours before harvesting them for analysis using the Surveyor assay. […] When the cells are treated with 4HT, the iCas enzyme is expected to translocate into the nucleus and be able to edit the DNA (these cells are depicted as yellow). However, when the inducer has been removed for more than 72 hours, the iCas protein is expected to translocate out of the nucleus and thus no more editing will be anticipated.
# [15] = test system: WAS locus and ASXL2; experiment: Toggling of iCas activity, Surveyor assay; assay type: cell-based, human
# Method: Subsequently, the possibility of toggling the activity of iCas was explored (FIG. 25b). After 1 μM 4-hydroxytamoxifen treatment of HEK293 cells co-transfected with iCas and a first sgRNA targeting the WAS locus, the inducer was removed and 72 hours waiting time was allowed to pass, thereby allowing nuclear-localized iCas protein to exit the nucleus before introducing a second sgRNA targeting a coding exon of ASXL2. The cells were then either treated with 4-hydroxytamoxifen a second time or left untreated.
# [16] = absence of 4HT, harvested 24 hours after transfection (0 hour time point)
substance,measurement,setting,value
"4-hydroxytamoxifen [4HT, reference compound]",4HT concentration for maximum activation of the inducible genome editing system,"[1]; 10, 100, 1000 nM tested, Surveyor assay and deep sequencing",at least 100 nM
variant 27: NLS-TGGGS-ERT2-PRGGS-ERT2-TPESGA-Cas9-NLS-ERT2-PAG-ERT2 (SEQ ID NO. 246),duration of 4-hydroxytamoxifen treatment at which cleavage activity appears to plateau,[1]; Surveyor assay,around 8 hours
same,duration of 4-hydroxytamoxifen treatment after which a low level of DNA editing was revealed,[2],2 h
same,time at which leaky activity was first detected,[2],6 h
same,INDEL frequency,[3]; 0 nM 4HT for another 24 hours,7.7%
same,cleavage bands with 4HT,[3],strong cleavage bands were observed
same,INDEL frequency,[3]; [16],2.5%
variant 29: NLS-TG-ERT2-GGSPRGGS-ERT2-TPESGA-Cas9-NLS-ERT2-PAG-ERT2 (SEQ ID NO. 248),duration of 4-hydroxytamoxifen treatment at which cleavage activity appears to plateau,[1]; Surveyor assay,around 8 hours
same,duration of 4-hydroxytamoxifen treatment after which a low level of DNA editing was revealed,[2],2 h
same,time at which leaky activity was first detected,[2],2 h
same,INDEL frequency,[3]; 0 nM 4HT for another 24 hours,3.5%
same,cleavage bands with 4HT,[3],strong cleavage bands were observed
same,INDEL frequency,[3]; [16],2.9%
variant 30: NL-TGGGS-ERT2-PRGGS-ERT2-TPESGA-Cas9-NLS-ERT2-PAGGGS-ERT2 (SEQ ID NO. 249); hereafter referred to as iCas,switching ratio,[1]; 0.25 μg plasmid,7.96
same,switching ratio,[1]; 0.5 μg plasmid,4.16
same,switching ratio,[1]; 1 μg of plasmid,2.83
same,duration of 4-hydroxytamoxifen treatment at which cleavage activity appears to plateau,[1]; Surveyor assay,around 8 hours
same,time point at which leaky activity was observed,"[1]; without 4-hydroxytamoxifen (0 nM), Surveyor assay",48 h
same,duration of 4-hydroxytamoxifen treatment after which a low level of DNA editing was revealed,[2],2 h
same,time at which leaky activity was first detected,[2],16 h
same,cleavage bands with 4HT,[3],strong cleavage bands were observed
same,cleavage band in the absence of 4HT,[3]; no 4HT,no cleavage band was detected
same,"duration of 4-hydroxytamoxifen treatment until nuclease activity, all loci tested",[4],≤ 4 h
same,duration of 4HT treatment after which genome modifications were detected,[5],6 h
same,cleavage at the two EMX1 off-target sites,"[6]; EMX1 sgRNA, 1 μM 4-hydroxytamoxifen up to 24 hours",did not yield any measurable cleavage
same,duration of 4HT treatment after which off-target effects were observed,"[6]; gRNAs targeting VEGFA promoter first site, TAT locus, FANCF locus",16 h
same,duration of inducer treatment until modification of the target locus,[7]; 1 μM 4-hydroxytamoxifen or 1 μg/ml doxycycline,≤ 6 h
same,cleavage bands in the absence of 4-hydroxytamoxifen,[7]; any time point,No cleavage bands were observed
same,luciferase activity,[8],significant decrease in luciferase activity
same,amount of β-catenin protein relative to the original level,"[9]; co-transfected with β-catenin-targeting sgRNA, Western blot",less than 20%
same,transcript level of β-catenin,"[9]; β-catenin-targeting sgRNA, qRT-PCR",significant decrease
same,"nuclear localization in the absence of 4-hydroxytamoxifen, versus variant 27 or variant 29",[10],significantly less nuclear localization
same,cells containing nuclear-localized protein,[11]; 24 hour treatment with 4-hydroxytamoxifen,48%
same,cells containing nuclear-localized protein,[11]; 72 hours after removal of 4-hydroxytamoxifen,not significantly different from that of the pre-induction state
same,cells containing nuclear-localized protein,[11]; without 4-hydroxytamoxifen,15%
same,switching ratio compared with intein-Cas9,"[12]; Surveyor assay, EMX1 and WAS loci",significantly higher ratios than intein-Cas9
same,induction time needed to reach the INDEL frequency of split-Cas9 after approximately 96 hours,[12]; deep sequencing,12 h
same,background activity without the inducer,[12]; no inducer,comparable levels of leakiness
same,editing of two genomic loci simultaneously,[13]; 12 hours of chemical treatment,generated INDELs at both the EMX1 and ADAR1 genomic loci
same,editing of two genomic loci simultaneously,[13]; 24 hours of chemical treatment,produced more genome modification than at 12 hours
same,cleavage bands with or without 4HT in the stable line,[14],"Cleavage bands (indicated by arrows) were observed for the treated cells, but not for the untreated cells"
same,"cleavage after two cycles of transfection, treated twice with the inducer",[15]; 1 μM 4-hydroxytamoxifen after first and second transfection,cleavage activity was readily observed at both targeted loci
same,"cleavage after two cycles of transfection, inducer after the first transfection only",[15]; 4-hydroxytamoxifen after the first but not the second transfection,cleavage was detected only at the WAS locus
